Experimental data: patent US11633370B2, “Use of scavengers of reactive gamma-ketoaldehydes to extend cell lifespan and healthspan” (Vanderbilt University, priority 2016, dated 2023)

Columns and labels:
[1] = tested on: VC199 (SIR-2.1 deficient strain); test: F3-IsoP quantification by GC/MS, VC199; type: in vivo, C. elegans; conditions: any dose of SA tested, Day 15
Source text: One of the major stimuli for activation of sirtuins is oxidative stress. […] Indeed, the mitochondrial antioxidant manganese superoxide dismutase (MnSOD) has been identified as one of the major protein targets that is deacetylated by sirtuin isoforms, with deacetylation enhancing the enzymatic activity of MnSOD [60]. If SA indeed preserves SIR-2.1 enzymatic function in vivo, the present inventors hypothesized that SA treatment would dose-dependently decrease biomarkers of oxidant injury in a SIR-2.1-dependent manner. To quantify oxidant injury, the present inventors measured F3-isoprostanes (F3-IsoPs). […] To further characterize SA's ability to preserve SIR-2.1 function, the present inventors assessed acetylation of MnSOD at Lys 122.
F3-Isoprostanes were quantified from SA-treated worms a gas-chromatography-negative ion chemical ionization-mass spectrometry (GC-NICI-MS) approach. […]
Samples were spiked with 248 pg of deuterated internal standards, [^2H4]-15-F2t-IsoP, quantified and calibrated by the method of Milne et al. and acidified to pH<3 with HCl in preparation for further Separation Phase Extraction (SPE). […]
Eluates were dried under nitrogen and F3—IsoPs and resuspended in MeOH for separation by Thin Layer Chromatography (TLC). […] Deuterated F2-IsoP standard was measured at m/z 573. F3—IsoP was measured at m/z 567. […]

[2] = tested on: VC199 SIR-2.1 mutants; test: Oxygen consumption rate of whole worms, VC199; type: in vivo, C. elegans; conditions: whole worms over several days; p>0.05
Source text: (§1) Mitochondria lie at the center of aging biology, playing crucial roles in energy production, carbon substrate metabolism, apoptosis regulation, and redox balance and signaling. Since sirtuins play a major role in regulating mitochondrial function, the present inventors next wanted to investigate whether SA was exerting any of its effects via protection of mitochondrial processes. To investigate SA's effects on mitochondrial respiration, the present inventors administered SA to WT N2 (FIG. 5A) and non-functional SIR-2.1 mutant worms (FIG. 5B) and measured oxygen consumption rate (OCR) in whole worms over several days. […] The present inventors also examined the effect of SA treatment on mitochondrial DNA (mtDNA) integrity.
Oxygen consumption rate for whole C. elegans was measured using a Seahorse Bioscience XF^e96 Analyzer. Worms were harvested from Day 0, 2, and 15 colonies maintained on FUDR containing SA-OP50-seeded NGM plates by washing in M9 medium, followed by floatation on an ice-cold 60% w/v sucrose gradient to segregate clean bacteria-free adult worms from bacterial debris. Worms were seeded at 1,000 worms/well in M9. After 20 min equilibration, a 2-min measurement was performed to obtain basal OCR for all experimental conditions and strains.

[3] = tested on: N2 WT C. elegans; test: mtDNA copy number by qPCR, N2; type: in vivo; conditions: with age or with SA treatment
Source text: as §1
Relative mitochondrial and nuclear copy number were measured by quantitative, real-time PCR [90]. Primers for NADH dehydrogenase unit 1 (nd1) and a 164 bp region of the cox-4 gene were used in determination of mtDNA copy number. The nd1 forward primer 5′-[…]-3′ and reverse primer 5′-[…]-3′. Cox-4 forward primer 5′-GCCGACTGGAAGAACTTGTC-3′ and reverse primer 5′-[…]-3′. […] Amplified products were detected with SYBR Green (iQ™ SYBR® Green Supermix, Bio-Rad) and fluorescent signal intensities were determined by CFX96 Touch™ Real-Time PCR Detection System (Bio-Rad) by software CFX Manager™ (version 3.1). […]

[4] = compared with pyridoxamine (PM); cited from earlier work

Which F3-IsoP levels [1] does the source give for NCc1ccccc1O [SA, salicylamine] here?
The F3-IsoP levels was “did not significantly decrease”.

What about the “mitochondrial oxygen consumption rate (OCR)” value [2] of the same compound?
Its value is “no effect”.

What about the “mtDNA copy number relative to nuclear DNA” value [3] of the same compound?
Its value is “no significant difference”.

What about the lipophilicity [4] of the same compound?
The lipophilicity was “more lipophilic”.
